The record followed here is ChEMBL document CHEMBL1139200, “Structure-activity relationships, and drug metabolism and pharmacokinetic properties for indazole piperazine and indazole piperidine inhibitors of ROCK-II” (Bioorg Med Chem Lett, 2007).

Structures are written as SMILES.

Data set [1] concerns the target Rho-associated protein kinase 2 (Homo sapiens, UniProt O75116). The data set can be described thus: Inhibition of ROCK2.
The target of data set [2] is Cytochrome P450 3A4 (Homo sapiens, UniProt P08684).
Sequence of Cytochrome P450 3A4 (P08684 whole entry): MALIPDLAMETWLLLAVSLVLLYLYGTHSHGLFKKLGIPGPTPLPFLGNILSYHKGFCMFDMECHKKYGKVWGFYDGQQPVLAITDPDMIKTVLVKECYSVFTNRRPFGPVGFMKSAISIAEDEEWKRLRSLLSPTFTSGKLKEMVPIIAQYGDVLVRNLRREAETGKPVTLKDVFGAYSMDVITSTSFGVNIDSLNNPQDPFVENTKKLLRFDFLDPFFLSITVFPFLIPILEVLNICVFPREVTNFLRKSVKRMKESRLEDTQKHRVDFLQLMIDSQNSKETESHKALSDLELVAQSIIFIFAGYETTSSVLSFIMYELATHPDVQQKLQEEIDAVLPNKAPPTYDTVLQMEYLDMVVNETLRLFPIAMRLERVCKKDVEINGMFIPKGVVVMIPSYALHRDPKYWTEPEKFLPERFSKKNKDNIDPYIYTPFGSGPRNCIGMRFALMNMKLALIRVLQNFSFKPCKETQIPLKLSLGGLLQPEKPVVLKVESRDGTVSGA
Data set [3] can be described thus: Metabolic stability in human liver microsomes.
The nature of data set [4]: Half life in rat at 1 mg/kg, iv. The conditions noted are these: in vivo. Set-up: dose 1 mg/kg, route intravenous. The data set is classed as ADME, organism-based.
The nature of data set [5]: Clearance in rat at 1 mg/kg, iv. The class given is ADME, organism-based. Details: dose 1 mg/kg, route intravenous. The conditions noted are these: in vivo.
Data set [6] in a line: Volume of distribution in rat at 1 mg/kg, iv. The note with it: in vivo. Details: dose 1 mg/kg, route intravenous. The data set is classed as ADME, organism-based.
Data set [7] in a line: AUC (0 to infinity) in rat at 1 mg/kg, iv. Set-up: time infinity, dose 1 mg/kg, route intravenous. The data set is classed as ADME, organism-based. The note with it: plasma.
The nature of data set [8]: AUC (0 to infinity) in rat at 2 mg/kg, po. The class given is ADME, organism-based. Set-up: time infinity, dose 2 mg/kg, route oral. The note with it: plasma.
Data set [9] is described as follows: Cmax in rat at 2 mg/kg, po. The conditions noted are these: in vivo. The data set is classed as ADME, organism-based. Set-up: dose 2 mg/kg, route oral.
Data set [10] can be described thus: Tmax in rat at 2 mg/kg, po. The class given is ADME, organism-based. The note with it: in vivo. Set-up: dose 2 mg/kg, route oral.
Data set [11] in a line: Oral bioavailability in rat at 2 mg/kg. The conditions noted are these: in vivo. The class given is ADME, organism-based.
A short description of data set [12]: Inhibition of MRCK. Set-up: species or system Homo sapiens.
Data set [13] is filed under the species Homo sapiens. The data set is described as follows: Selectivity for ROCK2 over MRCK.
The nature of data set [14]: Inhibition of PKA. Details: species or system Homo sapiens.
The species entered for data set [15] is Homo sapiens. The data set can be described thus: Selectivity for ROCK2 over PKA.
Data set [16] has as its system N2a. The data set can be described thus: Inhibition of LPA-induced neurite retraction in mouse N2A cells. The data set is classed as functional, cell-based.

Sequence of Rho-associated protein kinase 2 (O75116 whole entry): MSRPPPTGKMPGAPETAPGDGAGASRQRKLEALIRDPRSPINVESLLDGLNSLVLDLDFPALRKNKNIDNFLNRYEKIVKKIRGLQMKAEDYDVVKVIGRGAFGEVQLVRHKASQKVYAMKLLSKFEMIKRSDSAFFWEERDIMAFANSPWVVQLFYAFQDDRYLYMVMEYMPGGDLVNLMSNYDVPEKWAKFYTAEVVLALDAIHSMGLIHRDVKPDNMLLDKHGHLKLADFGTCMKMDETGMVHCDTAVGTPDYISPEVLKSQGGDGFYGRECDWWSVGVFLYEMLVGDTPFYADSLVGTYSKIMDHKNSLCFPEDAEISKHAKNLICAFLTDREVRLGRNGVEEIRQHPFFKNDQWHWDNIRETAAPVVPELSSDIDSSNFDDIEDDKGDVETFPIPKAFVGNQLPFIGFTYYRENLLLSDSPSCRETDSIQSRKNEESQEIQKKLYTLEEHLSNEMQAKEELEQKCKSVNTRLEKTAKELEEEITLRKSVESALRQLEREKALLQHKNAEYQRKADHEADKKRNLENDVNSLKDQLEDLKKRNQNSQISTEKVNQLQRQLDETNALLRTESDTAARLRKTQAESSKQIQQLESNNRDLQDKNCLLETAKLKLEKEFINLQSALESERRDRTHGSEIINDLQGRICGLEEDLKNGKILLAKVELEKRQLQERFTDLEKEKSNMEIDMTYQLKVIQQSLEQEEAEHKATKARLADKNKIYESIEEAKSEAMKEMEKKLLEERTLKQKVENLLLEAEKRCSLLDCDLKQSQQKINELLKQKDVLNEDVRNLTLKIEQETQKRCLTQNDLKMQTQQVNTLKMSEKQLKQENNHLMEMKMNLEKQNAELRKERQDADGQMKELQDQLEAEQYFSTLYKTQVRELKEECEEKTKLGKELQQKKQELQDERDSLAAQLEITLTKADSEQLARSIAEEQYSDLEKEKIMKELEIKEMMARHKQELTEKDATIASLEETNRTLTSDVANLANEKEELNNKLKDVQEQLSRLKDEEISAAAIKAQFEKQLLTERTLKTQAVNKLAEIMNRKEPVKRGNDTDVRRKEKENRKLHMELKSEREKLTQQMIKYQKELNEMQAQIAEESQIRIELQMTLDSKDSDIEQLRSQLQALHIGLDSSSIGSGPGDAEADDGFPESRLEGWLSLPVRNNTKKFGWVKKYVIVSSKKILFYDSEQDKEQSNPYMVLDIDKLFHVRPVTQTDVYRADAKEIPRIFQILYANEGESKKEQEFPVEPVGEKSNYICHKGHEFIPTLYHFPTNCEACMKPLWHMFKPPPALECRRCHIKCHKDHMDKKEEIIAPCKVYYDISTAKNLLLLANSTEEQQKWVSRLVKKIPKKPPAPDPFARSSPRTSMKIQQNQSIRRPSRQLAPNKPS

Take `O=C([C@H](O)c1ccccc1Cl)N1CCN(c2ccc3[nH]ncc3c2)CC1`: the IC50 in [1] came to 1200 nM; in data set [2], 8 µM.
In the same order, the values of `N[C@@H](C(=O)N1CCN(c2ccc3[nH]ncc3c2)CC1)c1ccccc1` are 1300 nM and 0.47 µM.
Taken in the same sequence, the figures for `O=C([C@@H](O)c1ccccc1Cl)N1CCC(Nc2ccc3[nH]ncc3c2)CC1` were 1700 nM and 4 µM.
As to `C[C@H](N)C(=O)N1CCC(Nc2ccc3[nH]ncc3c2)CC1`, the half-inhibitory concentration (IC50) in data set [1] is 6000 nM; in [2], greater than 10 µM.
Taken in the same sequence, the figures for `N[C@H](Cc1ccccc1)C(=O)N1CCN(c2ccc3[nH]ncc3c2)CC1` were 380 nM and 7 µM.
Taken in the same sequence, the figures for `NC(C(=O)N1CCN(c2ccc3[nH]ncc3c2)CC1)c1cccc(Cl)c1` (configuration not stated) were 760 nM and 0.25 µM.
Taken in the same sequence, the figures for `O=C([C@H](O)c1cccc(Cl)c1)N1CCN(c2ccc3[nH]ncc3c2)CC1` were 1000 nM and 3.5 µM.
For `NC(C(=O)N1CCN(c2ccc3[nH]ncc3c2)CC1)c1ccc(Cl)cc1` (configuration not stated), the IC50 in data set [1] stood at 190 nM; in [2], 0.53 µM.
`NC(C(=O)N1CCC(Nc2ccc3[nH]ncc3c2)CC1)c1ccc(Br)cc1` (configuration not stated): the half-inhibitory concentration (IC50) in [1] was 13 nM; in [12], 7.2 µM; in data set [14], 940 nM; in [16], 5.7 µM; in [2], 0.49 µM. The half-life in [3] (microsomes) is 10.8 min; in data set [4], 36 min. This compound also had a clearance in data set [5] of 41.4 mL/min/kg. Moreover, the Vd in data set [6] came out at 1.7 L/kg. The AUC(0-inf) in data set [7] stood at 0.95 µM·h; in data set [8] it was 0.15 µM·h. The compound further returned a Cmax in [9] of 100 nM. For the same compound, the Tmax in data set [10] is 42 min. The bioavailability in data set [11] was 8%. Further, the Ratio IC50 in [13] came to 554; in data set [15] it was 72.
In the case of `NC(C(=O)N1CCC(Nc2ccc3[nH]ncc3c2)CC1)c1cccc(Cl)c1` (configuration not stated), the IC50 was 150 nM in data set [1] and 0.17 µM in data set [2].
`NC(C(=O)N1CCN(c2ccc3[nH]ncc3c2)CC1)c1ccc(Br)cc1` (configuration not stated): the half-inhibitory concentration (IC50) in data set [1] is 90 nM; in data set [12], greater than 20 µM; in [14], 450 nM; in [16], greater than 15 µM; in data set [2] it was 0.41 µM. Also, the half-life in data set [3] (liver microsomes) is 9.8 min; in data set [4], 36 min. The clearance in data set [5] was 75.5 mL/min/kg. In data set [6], this compound had a volume of distribution (Vd) of 2.7 L/kg. The area under the curve AUC(0-inf) came out at 0.54 µM·h in data set [7] and 0.09 µM·h in [8]. For the same compound, in data set [9], the highest concentration (Cmax) turned out to be 400 nM. Further, in data set [10], the Tmax was found to be 24 min. For the same compound, the bioavailability in data set [11] was determined as 8%. Also, the figures for the Ratio IC50 in [13] and in data set [15] were greater than 222 and 5, respectively.
For `O=C([C@@H](O)c1cccc(Cl)c1)N1CCC(Nc2ccc3[nH]ncc3c2)CC1`, the half-inhibitory concentration (IC50) in data set [1] is 350 nM; in [2], 2 µM.
Taken in the same sequence, the figures for `N[C@@H](Cc1ccccc1)C(=O)N1CCC(Nc2ccc3[nH]ncc3c2)CC1` were 470 nM and 1 µM.
Taken in the same sequence, the figures for `CC(C)[C@@H](O)C(=O)N1CCN(c2ccc3[nH]ncc3c2)CC1` were 3900 nM and 10 µM.
In the same order, the values of `O=C([C@H](O)c1ccccc1)N1CCC(Nc2ccc3[nH]ncc3c2)CC1` are 770 nM and 1 µM.
Take `C[C@@H](N)C(=O)N1CCN(c2ccc3[nH]ncc3c2)CC1`: the half-inhibitory concentration (IC50) was greater than 10000 nM in [1] and 10 µM in data set [2].
Taken in the same sequence, the figures for `O=C(C(O)c1ccc(Cl)cc1)N1CCN(c2ccc3[nH]ncc3c2)CC1` (configuration not stated) were 190 nM and 3 µM.
Turning to `O=C([C@@H]1Cc2ccccc2CN1)N1CCN(c2ccc3[nH]ncc3c2)CC1`, the values for the IC50 in data set [1] and in [2] were 5300 nM and 10 µM, respectively.
In the same order, the values of `O=C([C@H](O)c1ccccc1)N1CCN(c2ccc3[nH]ncc3c2)CC1` are 800 nM and 10 µM.
With `O=C(C(O)c1ccc(Br)cc1)N1CCC(Nc2ccc3[nH]ncc3c2)CC1` (configuration not stated), the concentration for half-maximal inhibition (IC50) in data set [1] is 80 nM; in data set [12], greater than 20 µM; in [14], 4200 nM; in data set [16] it was 3.5 µM; in data set [2], 3.5 µM. Moreover, the half-life was 36.3 min in data set [3] (liver microsomes) and 66 min in [4]. The compound further displayed a clearance in [5] of 30.3 mL/min/kg. Further, the Vd in data set [6] is 1.9 L/kg. Moreover, the AUC(0-inf) was determined as 1.35 µM·h in [7] and 0.71 µM·h in data set [8]. The highest level in [9] (Cmax) was 200 nM. The Tmax in data set [10] stood at 24 min. In data set [11], this compound yielded a bioavailability of 26%. Also, the Ratio IC50 in data set [13] was greater than 250; in [15], 53.
For the compound `N[C@H](C(=O)N1CCC(Nc2ccc3[nH]ncc3c2)CC1)c1ccccc1`, the half-maximal inhibitory concentration (IC50) in data set [1] was 830 nM.
On to `C[C@H](O)C(=O)N1CCC(Nc2ccc3[nH]ncc3c2)CC1`, for which the IC50 in data set [1] turned out to be 10000 nM; in [2] it was 1 µM.
For the compound `O=C(C(O)c1ccc(Br)cc1)N1CCN(c2ccc3[nH]ncc3c2)CC1` (configuration not stated), the half-inhibitory concentration (IC50) in [1] was 100 nM; in [12], greater than 20 µM; in [14] it was 2700 nM; in [16] it was 2.4 µM. This compound gave a half-life in data set [4] of 42 min. The clearance in data set [5] worked out at 109 mL/min/kg. In data set [6], the Vd is 3.7 L/kg. In addition, the AUC(0-inf) stood at 0.38 µM·h in [7] and 0.21 µM·h in data set [8]. In data set [9], this compound came in with a Cmax of 100 nM. Further, the time to peak (Tmax) in data set [10] was found to be 24 min. The same compound gave a bioavailability in data set [11] of 28%.

For orientation: IC50 means the concentration needed to halve the response being measured. What is called half-life is the time in which the quantity being followed falls by half. Lower therefore signals fast loss. In general, clearance refers to a measure of how efficiently the substance is removed, as volume per time. By Vd is commonly meant a proportionality between amount in the body and measured concentration, not a real space. A high value points to extensive tissue distribution. As a reminder, the AUC(0-inf) is the area under the concentration-time curve extrapolated to infinity. A high value points to more exposure. One may read the Cmax as the maximum level reached in the sampled fluid or tissue. Broadly, the Tmax is the time from dosing to the highest level. The bioavailability is the share of a dose that reaches the circulation, judged against a reference dose that is usually intravenous.
